Values of other authors as cited in patent US6200975A, “Substituted 1,2,4-triazolo[3,4-a]phthalazine derivatives as GABA alpha 5 ligands” (Merck Sharp & Dohme Limited, priority 1997, dated 2001).

Details: reported by McNamara and Skelton

Q: Which “spatial learning in the Morris watermaze” value does the source give for `COC(=O)c1cc2c(cn1)[nH]c1ccccc12` [β-CCM] here?
A: Its value is “enhanced spatial learning”.
